Source: patent publication US5462936A, “Benzothiazepine derivatives” (Shionogi & Co., Ltd., priority 1991, dated 1995)

Assays:
[1] = target: Calcium Channel (Oryctolagus cuniculus, UniProt P15381); test: Calcium channel antagonism: relaxing action on extracted blood vessel (rabbit femoral artery, contracture by 50 mM KCl); conditions: 50 mM KCl contracture, 50% of maximum relaxing (0.1 mM papaverine)
Method: (§1) Calcium Channel Antagonism and […] Action (Relaxing Action on Extracted Blood Vessel)
(§2) Male rabbits weighing 2-3 kg (Rabiton, Japanese albino species) were anesthetized through intravenous administration of pentobarbital (50 mg/kg), and sacrificed by bloodletting through dissection of axillary artery. Femoral artery was extracted, connective tissue surrounding the artery was removed, and helical specimen was prepared. The specimen was suspended in an organ bath (20 cc) filled with 37° C. Krebs-Henseleit nutritious solution and bubbled with a 95% O2 +5% CO2 mixed gas. 1.5 g of resting tension was loaded on femoral artery. Isometric change of the tension of the specimen was recorded on a thermal recorder (Nippon Koden WT-685G) via F-D pickup Nippon Koden (TB611T) and Preamp (Nippon Koden). Ca-antagonism of a test compound was evaluated by observing relaxing action due to accumulative addition of the compound on the contracture caused by the application of 50 mM KCl. α-Blocking action was similarly evaluated by observing such relaxing action on the contracture caused by the application of 1 μM norepinephrine (NE). […] The concentration of a given compound, which is necessary for giving 50% of the maximum relaxing (IC50), was determined using the above system.

[2] = tested on: femoral artery; test: α-Blocking action: relaxing action on extracted blood vessel (rabbit femoral artery, contracture by 1 μM norepinephrine); conditions: Oryctolagus cuniculus, 1 μM norepinephrine contracture, 50% of maximum relaxing (0.1 mM papaverine), read-out: Relaxing action on Blood Vessel IC50, 1 μM-NE
Method: as §1, §2

[3] = tested on: cultured cardiac cells; test: Anti-hypoxia action on cultured cardiac cells (inhibition of CPK leakage); format: cell-based, rat (newborn Crj-SD); conditions: Rattus norvegicus, read-out: Anti-hypoxia Activity (%), rate of inhibition on CPK leakage
Method: Anti-hypoxia action of the compounds of the present invention were investigated through studying their action in connection with the protection of cardiomuscular cells.
Primary culture of cardiac cells was prepared from newborn Crj-SD rats (2-3 day old) and used in the experiment. The primary culture was prepared according to the method described by Jones R. L. et al., Am. J. Pathol., 135, 541-556, 1989. Thus, cardiac cells were isolated from ventricle muscle using collagenase and pancreatin, and then the cardiac cells were separated and purified from cell debris, erythrocytes, and fibroblasts by means of Percoll density-gradient centrifugation. The cells were spread on a culture plate at a ratio of 2-3×10^5 cells/3.5 cm plate, and the cells were cultured for two days in Dulbecco's Modified Eagle's Medium (DMEM) containing 10% Fetal Bovine Serum (FBS) in an incubator (5% CO2 /95% Air) kept at 37° C. After sufficient growth of the cardiac cells, the culture medium was changed to DMEM free from FBS, and the culture was continued additional one day. The cells thus obtained were used in the experiment.
Hypoxia was generated using Gas Pak™ Anaerobic Chamber (BBL) which produces hypoxia by capturing residual O2 and changing it into H2 0 by the action of a H2 /CO2 generating bag and catalyst. The cardiac cell plate, wherein the culture medium had been changed to DMEM which is free from FBS and glucose, was set in the chamber, and the chamber was placed in an incubator. Anti-hypoxia activity of test compounds was determined by measuring inhibition rate of leakage of creatine phosphokinase activity into the culture medium.
The compounds tested were all dissolved in DMSO using HCO-50 as a solubilizing agent (DMSO:HCO-50=9:1), and directly charged onto the culture plate. The final concentrations of DMSO and HCO-50 in the culture medium were adjusted to 0.09% and 0.01% respectively. CPK activity was measured by colorimetry (Wako Kit) modified from Oliver method.
The numerical values in the table show cardiac cells-protecting activity of test compounds in terms of the rate (%) of inhibition on CPK leakage determined in connection with the test compounds when the amount of the CPK leakage for negative control (no addition of the test compounds) was defined as 100%.

[4] = tested on: spontaneous hypertensive rats (SHR); test: Action on blood pressure and heart rate of not-anesthetized SHR; format: in vivo, rat (SHR); conditions: 2 and 4 hours after administration; for Antihypertensive action (%): decrease in SBP
Method: Action of the compounds of the invention on blood pressure and heart rate of not-anesthetized spontaneous hypertensive rats (SHR)
Male Japanese Charles-River SHR (13-17 week old) were used in the experiment (S. Matsuda, J. Pharmacol. Method, 17 361, 1987). Systolic blood pressure (SBP) and heart rate of the animals were measured non-invasively (indirectly) using hemadynamometer for caudal artery pressure (6 channel type) before the administration of test compounds, at 2 and 4 hours after administration. Test compounds were dissolved in DMSO (100%) and orally administered. Decreased values in SBP and heart rate determined 2 and 4 hours after administration when compared with those determined before administration are shown in percentage (%) in the following table.

[5] = tested on: cardiac muscle damage due to ischemia; test: Anti-necrosis activity (left coronary ligation and reperfusion, CPK retention in left ventricle); format: in vivo, rat (Wistar); conditions: Rattus norvegicus; for inhibition in vivo at 0.3 mg/kg: 0.3 mg/kg iv; for inhibition in vivo at 1 mg/kg: 1 mg/kg iv
Method: Male Sic Wistar rats weighing 200-250 g were anesthetized with urethane (1 g/kg), and ramus descendens of the left coronaria was ligated for 20 minutes and then reperfused according to the method described by Hock et al (Hock, […]., Am. Heart J., 109 222, 1985). […] For three hours after the reperfusion, the rats were subjected to heat insulation on a warming mat. After 120 minutes, the hearts were extracted, and the free walls of the left ventricles were frozen and storred until determination of CPK activity. CPK activity was determined according to the method of Bernauer, W. (Arch. int. Pharmacodyn., 231 90, 1978) after minor modification. Thus, the extracted tissue was homogenized in 10 volumes of 0.1M Tris/HCl (pH 7.5) containing 1 mM mercaptoethanol and centrifuged at 20,000 g for 20 minutes. The supernatant was used for determination of CPK activity, which was conducted using a commercially available kit (CPK-Test, Wako). CPK was determined using serum CPK as a standard and expressed with "U/mg protein". […] The degree of the inhibition was measured in terms of the CPK activity retained in the left ventricle. The test results are shown in Table 7, wherein percentage of the retention (%) at each dose was calculated based on the following equation.

Chain of Calcium Channel (P15381 whole entry): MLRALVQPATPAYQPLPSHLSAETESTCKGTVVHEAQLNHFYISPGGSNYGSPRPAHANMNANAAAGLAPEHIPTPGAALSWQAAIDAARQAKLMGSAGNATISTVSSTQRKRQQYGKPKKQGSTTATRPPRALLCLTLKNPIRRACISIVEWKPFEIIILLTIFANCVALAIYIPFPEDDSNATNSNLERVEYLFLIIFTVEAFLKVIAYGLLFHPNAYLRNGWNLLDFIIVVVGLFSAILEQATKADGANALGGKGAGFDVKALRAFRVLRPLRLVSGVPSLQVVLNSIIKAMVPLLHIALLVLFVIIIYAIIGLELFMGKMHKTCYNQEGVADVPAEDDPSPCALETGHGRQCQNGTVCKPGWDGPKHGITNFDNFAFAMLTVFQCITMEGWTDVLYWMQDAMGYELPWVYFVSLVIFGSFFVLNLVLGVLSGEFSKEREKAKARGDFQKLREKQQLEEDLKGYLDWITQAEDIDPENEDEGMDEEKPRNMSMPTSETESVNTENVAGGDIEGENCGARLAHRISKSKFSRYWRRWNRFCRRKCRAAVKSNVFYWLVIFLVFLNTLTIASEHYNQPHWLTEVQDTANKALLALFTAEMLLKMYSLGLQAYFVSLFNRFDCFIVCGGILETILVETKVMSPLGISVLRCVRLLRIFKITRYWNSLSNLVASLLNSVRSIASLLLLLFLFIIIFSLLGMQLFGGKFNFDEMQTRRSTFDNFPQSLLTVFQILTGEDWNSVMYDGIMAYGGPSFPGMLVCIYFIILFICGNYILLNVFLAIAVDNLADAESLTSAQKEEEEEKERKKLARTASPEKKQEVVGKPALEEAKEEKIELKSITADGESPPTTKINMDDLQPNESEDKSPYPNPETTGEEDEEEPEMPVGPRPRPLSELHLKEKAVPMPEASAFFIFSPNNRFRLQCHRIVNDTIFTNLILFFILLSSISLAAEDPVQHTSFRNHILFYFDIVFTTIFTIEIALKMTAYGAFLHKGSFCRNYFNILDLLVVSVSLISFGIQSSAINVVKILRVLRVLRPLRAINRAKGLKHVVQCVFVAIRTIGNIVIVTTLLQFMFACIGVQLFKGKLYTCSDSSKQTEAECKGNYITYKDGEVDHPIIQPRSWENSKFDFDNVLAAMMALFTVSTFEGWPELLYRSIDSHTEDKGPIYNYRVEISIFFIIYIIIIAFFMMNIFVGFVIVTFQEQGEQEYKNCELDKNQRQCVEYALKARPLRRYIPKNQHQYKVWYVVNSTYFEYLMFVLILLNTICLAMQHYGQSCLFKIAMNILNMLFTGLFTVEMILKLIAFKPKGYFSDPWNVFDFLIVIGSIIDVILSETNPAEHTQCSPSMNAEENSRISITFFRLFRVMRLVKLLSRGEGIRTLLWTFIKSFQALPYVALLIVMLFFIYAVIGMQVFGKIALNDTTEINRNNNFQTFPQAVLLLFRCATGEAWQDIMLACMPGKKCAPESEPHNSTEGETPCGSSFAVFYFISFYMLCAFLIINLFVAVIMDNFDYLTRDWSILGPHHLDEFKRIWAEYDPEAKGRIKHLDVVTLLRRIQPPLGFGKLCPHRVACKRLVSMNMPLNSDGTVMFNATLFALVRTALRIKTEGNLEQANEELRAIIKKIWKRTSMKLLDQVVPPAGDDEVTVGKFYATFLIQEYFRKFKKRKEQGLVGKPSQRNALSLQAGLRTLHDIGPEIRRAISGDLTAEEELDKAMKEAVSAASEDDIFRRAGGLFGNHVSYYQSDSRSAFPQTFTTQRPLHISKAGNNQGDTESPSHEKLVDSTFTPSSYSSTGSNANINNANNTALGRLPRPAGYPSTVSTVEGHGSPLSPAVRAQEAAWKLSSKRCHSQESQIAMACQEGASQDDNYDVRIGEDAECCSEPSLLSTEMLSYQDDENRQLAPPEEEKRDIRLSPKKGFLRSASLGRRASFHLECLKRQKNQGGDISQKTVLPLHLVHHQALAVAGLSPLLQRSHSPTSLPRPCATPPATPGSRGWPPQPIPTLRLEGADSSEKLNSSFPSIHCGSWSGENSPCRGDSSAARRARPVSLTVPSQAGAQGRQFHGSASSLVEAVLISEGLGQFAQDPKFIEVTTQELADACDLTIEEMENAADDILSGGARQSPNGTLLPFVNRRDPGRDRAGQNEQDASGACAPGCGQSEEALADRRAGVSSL
Chain of Calcium Channel (P13806 27-960 partner limits assumed): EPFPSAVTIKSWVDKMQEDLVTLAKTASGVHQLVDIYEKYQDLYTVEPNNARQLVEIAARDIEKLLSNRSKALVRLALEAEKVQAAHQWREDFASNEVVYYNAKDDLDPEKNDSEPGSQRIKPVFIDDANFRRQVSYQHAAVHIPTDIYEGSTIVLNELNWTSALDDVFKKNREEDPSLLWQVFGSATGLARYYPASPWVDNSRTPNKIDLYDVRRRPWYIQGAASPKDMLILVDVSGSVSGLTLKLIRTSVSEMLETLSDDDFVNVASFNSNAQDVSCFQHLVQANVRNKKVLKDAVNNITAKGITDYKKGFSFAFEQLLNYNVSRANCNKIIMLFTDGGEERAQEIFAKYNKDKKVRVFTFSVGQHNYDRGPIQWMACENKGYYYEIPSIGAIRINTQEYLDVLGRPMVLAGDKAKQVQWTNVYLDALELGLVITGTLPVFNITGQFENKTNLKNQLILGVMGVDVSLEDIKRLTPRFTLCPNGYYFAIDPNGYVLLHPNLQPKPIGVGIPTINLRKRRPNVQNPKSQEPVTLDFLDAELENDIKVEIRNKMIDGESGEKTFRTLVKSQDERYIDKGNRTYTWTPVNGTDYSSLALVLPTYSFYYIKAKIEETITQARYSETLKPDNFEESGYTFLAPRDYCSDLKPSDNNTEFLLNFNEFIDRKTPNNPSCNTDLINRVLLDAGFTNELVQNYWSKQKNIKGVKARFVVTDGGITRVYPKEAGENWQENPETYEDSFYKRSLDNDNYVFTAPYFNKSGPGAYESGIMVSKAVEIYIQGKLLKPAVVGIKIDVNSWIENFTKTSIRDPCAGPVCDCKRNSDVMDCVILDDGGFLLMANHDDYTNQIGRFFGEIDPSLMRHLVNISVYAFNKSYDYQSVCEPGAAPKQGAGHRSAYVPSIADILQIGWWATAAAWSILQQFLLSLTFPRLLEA
Chain of Calcium Channel (P13806 961-1106 partner limits assumed): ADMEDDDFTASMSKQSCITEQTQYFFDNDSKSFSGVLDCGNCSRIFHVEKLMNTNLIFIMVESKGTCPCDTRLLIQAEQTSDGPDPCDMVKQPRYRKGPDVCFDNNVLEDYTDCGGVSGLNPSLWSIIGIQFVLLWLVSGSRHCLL

| Structure (SMILES) | IC50 [1] | IC50 [2] | inhibition at 1 µM [3] | inhibition at 10 µM [3] | Decrease of heart rate (%) ([4]; 30 mg/kg PO) | Antihypertensive action (%) ([4]; 30 mg/kg PO) | inhibition in vivo at 0.3 mg/kg [5] | inhibition in vivo at 1 mg/kg [5] | Decrease of heart rate (%) ([4]; 60 mg/kg PO) | Antihypertensive action (%) ([4]; 60 mg/kg PO) | inhibition in vivo at 0.1 mg/kg ([5]; 0.1 mg/kg iv) |
| --- | --- | --- | --- | --- | --- | --- | --- | --- | --- | --- | --- |
| COc1ccc([C@@H]2Sc3cc(Cl)ccc3N(CCCN3CCN(c4ccccc4OC)CC3)C(=O)[C@@H]2OC(C)=O)cc1 (relative stereo) [Compound I-8, 3-Acetoxy-5-[3-(4-(2-methoxyphenyl)-piperazinyl)propyl]-2,3-dihydro-2-(4-methoxyphenyl)-8-chloro-1,5-benzothiazepin-4(5H)-one] | 280 nM | 60 nM | 17% | 70% | 3.2% | 15% | 29% | – | – | – | – |
| COc1ccc([C@@H]2Sc3cc(C)ccc3N(CCCN3CCN(c4ccccc4OC)CC3)C(=O)[C@@H]2OC(C)=O)cc1 [Compound I-36, (2S-cis)-3-Acetoxy-5-[3-(4-(2methoxyphenyl) - 1-piperazinyl)propyl]-2,3-dihydro-2-(4-methoxyphenyl)-8-methyl-1,5-benzothiazepin-4 (5H)-one] | 140 nM | 20 nM | – | – | – | – | – | 30% | – | – | – |
| COc1ccc([C@@H]2Sc3ccccc3N(CCN(C)C)C(=O)[C@@H]2OC(C)=O)cc1 [Diltiazem, reference compound] | – | 13300 nM | 10% | 29% | – | – | – | 13% | 15% | 11% | – |
| COc1ccc([C@@H]2Sc3cc(Cl)ccc3N(CCCN3CCN(C(c4ccccc4)c4ccc(Cl)cc4)CC3)C(=O)[C@@H]2OC(C)=O)cc1 (stereo partly drawn) [Compound I-22, (2S-cis)-3-Acetoxy-5-[3-(4-(4-chlorobenzhydryl)-1-piperazinyl)propyl]-2,3-dihydro-2-(4-methoxyphenyl)-8-chloro-l,5-benzothiazepin-4(5H)-one] | 340 nM | – | 25.7% | 73.9% | 9.4% | 18% | 45% | – | – | – | – |
| COc1ccc([C@@H]2Sc3cc(OC)ccc3N(CCCN3CCN(c4ccccc4OC)CC3)C(=O)[C@@H]2OC(C)=O)cc1 [Compound I-35, (2S-cis)-3-Acetoxy-5-[3-(4-(2-methoxyphenyl)-1-piperazinyl)propyl]-2,3-dihydro-2-(4-methoxyphenyl)-8-methoxy-l,5-benzothiazepin-4(5H)-one] | 120 nM | 30 nM | – | – | – | – | – | 37% | – | – | – |
| COc1ccc([C@@H]2Sc3cc(Cl)ccc3N(CCCN3CCN(c4ccccc4OC)CC3)C(=O)[C@@H]2OC(C)=O)cc1.Cl [Compound I-18, (2S-cis)-3-Acetoxy-5-[3-(4-(2-methoxyphenyl) -1-piperazinyl)propyl]-2,3-dihydro-2(4-methoxyphenyl) -8-chloro-1,5-benzothiazepin-4(5H)-one hydrochloride] | 250 nM | 37 nM | 23.7% | 73.9% | 7.0% | 18% | 42% | – | – | – | 30% |
| COc1ccc([C@@H]2Sc3cc(Cl)ccc3N(CCCN3CCN(C(c4ccc(F)cc4)c4ccc(F)cc4)CC3)C(=O)[C@@H]2OC(C)=O)cc1 (relative stereo) [Compound I-15, 3-Acetoxy-5-[3-(4-(4,4'-difluorobenzhydryl) -1-piperazinyl)propyl]-2,3-dihydro-2-(4-methoxyphenyl)-8-chloro-1,5-benzothiazepin-4(5H)-one] | 57 nM | 600 nM | – | 76% | – | – | – | – | 6.5% | 17% | – |
